target: T1, VicK' (cytoplasmic HisKA and HATPase_c domains of histidine kinase VicK) (Streptococcus pneumoniae, UniProt A0A0H2ZNH9); assay: Kinase-Glo luminescent assay of residual ATP (ATPase / autophosphorylation); format: biochemical; conditions: read-out: IC50 (μM) for VicK' protein
T1 construct: gene walK
Description: Kinase-Glo luminescent assay of residual ATP (ATPase / autophosphorylation) on VicK' (cytoplasmic HisKA and HATPase_c domains of histidine kinase VicK)

T1 sequence (A0A0H2ZNH9 201-449): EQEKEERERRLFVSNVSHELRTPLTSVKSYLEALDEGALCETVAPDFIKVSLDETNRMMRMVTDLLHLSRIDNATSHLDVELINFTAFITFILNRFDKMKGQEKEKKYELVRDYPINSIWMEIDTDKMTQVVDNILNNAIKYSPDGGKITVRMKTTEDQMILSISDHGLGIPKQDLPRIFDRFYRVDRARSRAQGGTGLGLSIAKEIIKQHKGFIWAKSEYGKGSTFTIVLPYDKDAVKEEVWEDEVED

SMILES | IC50 [µM]
Nc1nonc1C(=O)NCCNCc1ccc(OCc2cccs2)cc1 [compound 1, Compound 1] | 542
COc1ccc(-c2ccc(CNCCNC(=O)c3nonc3N)o2)cc1Cl [compound 2, Compound 2] | 562
COc1ccc(CCNCc2ccc(-c3ccccc3)o2)cc1OC [compound 3, Compound 3] | 503
Cn1nnnc1SCCCNCc1ccc(-c2ccccc2F)o1 [compound 4, Compound 4] | > 1000
Cn1nnnc1SCCCNCc1ccc(-c2ccc(F)c(Cl)c2)o1 [compound 5, Compound 5] | 598
c1ccc2[nH]c(Nc3ccc(-c4ccc(Nc5nc6ccccc6[nH]5)cc4)cc3)nc2c1 [compound 6, Compound 6] | 32.6
